The assay concerns the target T1, McjD (antibacterial peptide ATP-binding cassette transporter) (Escherichia coli, UniProt Q9X2W0).
T1 construct: full-length, detergent (dodecyl maltopyranoside) purified, ~66 kDa, 580 residues per vanadium, homodimer; prepared as described previously
Kind of assay: X-ray crystallography (V-SAD, […] Å, phased anomalous difference maps). The conditions noted are these: complex formed with 2 mM ATP, 2 mM sodium orthovanadate, 5 mM MgCl2, pH 7.8; post-hydrolysis ADP-VO4 state; one site per monomer.

We go through one compound from PMC7642786, “Experimental phasing with vanadium and application to nucleotide-binding membrane proteins” (IUCrJ, 2020).

T1 sequence (Q9X2W0 whole entry): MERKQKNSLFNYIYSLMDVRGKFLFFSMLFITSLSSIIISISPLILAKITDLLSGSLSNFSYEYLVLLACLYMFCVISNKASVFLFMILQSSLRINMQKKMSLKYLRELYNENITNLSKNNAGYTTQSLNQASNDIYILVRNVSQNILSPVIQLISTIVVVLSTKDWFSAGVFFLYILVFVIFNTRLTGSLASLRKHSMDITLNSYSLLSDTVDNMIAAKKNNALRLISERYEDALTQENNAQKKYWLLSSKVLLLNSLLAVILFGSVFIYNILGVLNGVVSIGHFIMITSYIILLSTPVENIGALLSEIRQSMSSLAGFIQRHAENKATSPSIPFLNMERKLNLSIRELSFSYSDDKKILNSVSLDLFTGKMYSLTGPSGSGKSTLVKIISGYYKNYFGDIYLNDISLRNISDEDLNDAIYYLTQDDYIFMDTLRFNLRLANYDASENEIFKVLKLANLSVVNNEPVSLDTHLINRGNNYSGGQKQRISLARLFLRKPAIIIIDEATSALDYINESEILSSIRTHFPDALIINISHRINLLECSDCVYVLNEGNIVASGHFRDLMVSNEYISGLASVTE

As to `[O]=[V]([OH])([OH])[OH]` [VO4], the “X-ray crystallography (V-SAD, 3.4 Å, phased anomalous difference maps)” value is on record as “two vanadium sites (one per monomer) could easily be located”.
